Test results published in patent publication US10563270B2, “Solid forms of menaquinols” (Gnosis S.p.A., priority 2015, dated 2020).
Blank lines part the entries; values can stand above or below the compound they belong to.

How the values were obtained:
[1] = system: Caco-2 human adenocarcinoma cells; experiment: Absorption of reduced or oxidised vitamin K2-(MK7) on cell monolayer of Caco-2 cells in vitro; type: in vitro ADME; details: for amount of vitamin internalized by the cell layer (μg of vitamin per g of homogenate): 100 μM vitamin applied to apical compartment, 1% ethanol
Method: Caco-2 human adenocarcinoma cells were cultured on a permeable insert inserted in the well of a microplate to form a confluent monolayer with the barrier function between an apical and a basolateral compartment. The perfect integrity of the monolayer was determined by testing for the absence of passage by lucifer yellow, a compound with low permeability. Samples of vitamin K2-(MK7), alternatively in the reduced form (menaquinol) or the oxidized form (menaquinone), were dissolved in ethanol and applied to the apical compartment, the 1% ethanol solution being added to the incubation buffer. The final solution in the incubation well was fixed at 100 μM of vitamin.
At the end of the incubation period the cell layer was removed from the insert and homogenized, and the homogenate was centrifuged. The amount of vitamin present in the supernatant was determined by HPLC. The centrifugation pellet was then resuspended in 1 ml of water, and 1.5 ml of isopropanol and 2.5 ml of hexane were added to the suspension. After stirring, the organic phase formed was analyzed, again by HPLC, for the concentration of vitamin K2 (MK7). The total of the two values was used to calculate the amount of vitamin internalized by the cell layer.

[2] = Stability tests of solid forms of reduced vitamin K2-(MK7) (oxidation of the reduced form over storage time); type: physicochemical; details: for Reduced (t/t0 %): percentage of the initial value of the reduced form; for percentage of the initial value of the reduced form: packaging Alu/vacuum

amount of vitamin internalized by the cell layer (μg of vitamin per g of homogenate) ([1]; mean of wells 1-4): 0.6 μg/g hom. | amount of vitamin internalized by the cell layer (μg of vitamin per g of homogenate) ([1]; well 1): 0.4 μg/g hom. | amount of vitamin internalized by the cell layer (μg of vitamin per g of homogenate) ([1]; well 2): 0.5 μg/g hom. | amount of vitamin internalized by the cell layer (μg of vitamin per g of homogenate) ([1]; well 3): 0.6 μg/g hom. | amount of vitamin internalized by the cell layer (μg of vitamin per g of homogenate) ([1]; well 4): 0.7 μg/g hom.
SMILES: CC(C)=CCC/C(C)=C/CC/C(C)=C/CC/C(C)=C/CC/C(C)=C/CC/C(C)=C/CC/C(C)=C/CC1=C(C)C(=O)c2ccccc2C1=O [Oxidised vitamin, menaquinone 7, reference compound]

amount of vitamin internalized by the cell layer (μg of vitamin per g of homogenate) ([1]; mean of wells 1-4): 1.1 μg/g hom. | uptake by Caco-2 cell layer compared with the oxidized form ([1]; result in words, 100 μM vitamin): slightly but significantly higher uptake | amount of vitamin internalized by the cell layer (μg of vitamin per g of homogenate) ([1]; well 1): 0.8 μg/g hom. | amount of vitamin internalized by the cell layer (μg of vitamin per g of homogenate) ([1]; well 2): 1.6 μg/g hom. | amount of vitamin internalized by the cell layer (μg of vitamin per g of homogenate) ([1]; well 3): 1.0 μg/g hom. | amount of vitamin internalized by the cell layer (μg of vitamin per g of homogenate) ([1]; well 4): 0.8 μg/g hom.
SMILES: CC(C)=CCC/C(C)=C/CC/C(C)=C/CC/C(C)=C/CC/C(C)=C/CC/C(C)=C/CC/C(C)=C/Cc1c(C)c(O)c2ccccc2c1O [Reduced vitamin, menaquinol 7]

Reduced (t/t0 %) ([2]; Time 0 days): 100% | Reduced (t/t0 %) ([2]; Time 3 days): 4%
SMILES: CC(C)=CCC/C(C)=C/CC/C(C)=C/CC/C(C)=C/CC/C(C)=C/CC/C(C)=C/CC/C(C)=C/Cc1c(C)c(O)c2ccccc2c1O [menaquinol 7, reference compound]

percentage of the initial value of the reduced form ([2]; T = 0): 100% | percentage of the initial value of the reduced form ([2]; T = 1 month): 95.4% | percentage of the initial value of the reduced form ([2]; T = 2 months): 98.9% | percentage of the initial value of the reduced form ([2]; T = 3 months): 97.9% | % vitamin oxidised ([2]; Time 0 days): 18.41% | % vitamin reduced ([2]; Time 0 days): 81.58% | % vitamin oxidised ([2]; Time 3 days): 23.67% | % vitamin reduced ([2]; Time 3 days): 76.24% | % vitamin oxidised ([2]; Time 6 days): 36.69% | % vitamin reduced ([2]; Time 6 days): 63.16% | % vitamin oxidised ([2]; Time 10 days): 51.48% | % vitamin reduced ([2]; Time 10 days): 48.27% | % vitamin oxidised ([2]; Time 11 days): 52.67% | % vitamin reduced ([2]; Time 11 days): 47.04% | % vitamin oxidised ([2]; Time 12 days): 61.09% | % vitamin reduced ([2]; Time 12 days): 38.44%
SMILES: CC(C)=CCC/C(C)=C/CC/C(C)=C/CC/C(C)=C/CC/C(C)=C/CC/C(C)=C/CC/C(C)=C/Cc1c(C)c(O)c2ccccc2c1O [menaquinol 7]
